# Measurements taken from patent US9663473B2 (Actelion Pharmaceuticals Ltd, priority 2013, dated 2017).
# Where a name gives a salt, the structure may show the parent alone.
# Molecular target: T1, recombinant human ALX receptor (Homo sapiens, UniProt P25090)
# T1 construct: expressed in transfected cells; host or cells: HEK293 (HEK293-hALXR-Gα16)
# T1 sequence (P25090 1-351): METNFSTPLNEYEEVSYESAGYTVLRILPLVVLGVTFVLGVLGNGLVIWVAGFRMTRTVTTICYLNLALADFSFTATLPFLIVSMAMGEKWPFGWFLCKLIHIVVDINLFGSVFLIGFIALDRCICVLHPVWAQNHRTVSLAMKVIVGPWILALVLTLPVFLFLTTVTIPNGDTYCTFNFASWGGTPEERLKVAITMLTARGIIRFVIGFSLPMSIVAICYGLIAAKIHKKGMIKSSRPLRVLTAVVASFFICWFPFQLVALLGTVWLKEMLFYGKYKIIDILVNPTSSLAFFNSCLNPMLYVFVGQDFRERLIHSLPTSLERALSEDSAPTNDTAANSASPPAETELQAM
# Test: Intracellular calcium measurements (FLIPR), ALX receptor agonistic activity
# Type: cell-based
# Settings: HEK293-hALXR-Gα16 cells, Fluo-4 calcium signal, normalized to WKYMVm 10 nM
# Description: The ALX receptor agonistic activity of the compounds of formula (I) is determined in accordance with the following experimental method.
# Intracellular Calcium Measurements:
# Cells expressing recombinant human ALX receptor and the G-protein Gα16 (HEK293-hALXR-Gα16) were grown to 80% confluency in Growing Medium (GM). Cells were detached from culture dishes with a cell dissociation buffer (Invitrogen, 13151-014), and collected by centrifugation at 1′000 rpm at rt for 5 min in Assay Buffer (AB) (equal parts of Hank's BSS (Gibco, 14065-049) and DMEM without Phenol Red (Gibco, 11880-028)). After 60 min incubation at 37° C. under 5% CO2 in AB supplemented with 1 μM Fluo-4 (AM) (Invitrogen, F14202) and 20 mM HEPES (Gibco, 15630-056), the cells were washed and resuspended in AB. They were then seeded onto 384-well FLIPR assay plates (Greiner, 781091) at 50′000 cells in 70 μl per well and sedimented by centrifugation at 1′000 rpm for 1 min. Stock solutions of test compounds were made up at a concentration of 10 mM in DMSO, and serially diluted in AB to concentrations required for activation dose response curves. WKYMVm (Phoenix Peptides) was used as a reference agonist. A FLIPR Tetra instrument (Molecular Devices) was operated according to the manufacturer's standard instructions, adding 4 μl of test compound dissolved at 10 mM in DMSO and diluted prior to the experiment in assay buffer to obtain the desired final concentration. Changes in fluorescence were monitored before and after the addition of test compounds at lex=488 nm and lem=540 nm. Emission peak values above base level after compounds addition were exported after base line subtraction. Values were normalized to high-level control (WKYMVm compound, 10 nM final concentration) after subtraction of the base line value (AB addition).
row,Structure (SMILES),EC50
1,"O=C(N[C@H](Cc1ccc(Br)cc1)c1nc2ccc(F)cc2[nH]1)N[C@H]1CC[C@H](O)CC1 [Example 133, 1-((R)-2-(4-Bromophenyl)-1-(6-fluoro-1H-benzo[d]imidazol-2-yl)ethyl)-3-(trans-4-hydroxycyclohexyl)urea]",3.4 nM
2,"COc1c(F)cc(CC(NC(=O)N[C@H]2CC[C@](C)(O)CC2)c2nc3ccccc3[nH]2)cc1F (mixture of isomers) [Example 243, 1-(1-(1H-Benzo[d]imidazol-2-yl)-2-(3,5-difluoro-4-methoxyphenyl)ethyl)-3-(trans-4-hydroxy-4-methylcyclohexyl)urea]",155 nM
3,"O=C(NC(Cc1ccc(OC(F)(F)F)cc1)c1nc2ccccc2[nH]1)NC1CN2CCC1CC2 (stereo not drawn) [Example 141, 1-(1-(1H-Benzo[d]imidazol-2-yl)-2-(4-(trifluoromethoxy)phenyl)ethyl)-3-(quinuclidin-3-yl)urea]",834 nM
4,"O=C(NC(Cc1ccc(Br)c(F)c1)c1nc2ccccc2[nH]1)N[C@H]1CC[C@H](O)CC1 (single isomer, unassigned; ent-2) [Example 262, 1-(1-(1H-Benzo[d]imidazol-2-yl)-2-(4-bromo-3-fluorophenyl)ethyl)-3-(trans-4-hydroxycyclohexyl)urea (ent-2)]",11 nM
5,"CCC(NC(=O)N[C@H](Cc1ccc(OC)cc1)c1nc2ccccc2[nH]1)c1ccccc1 (stereo partly drawn) [Example 279, 1-((R)-1-(1H-Benzo[d]imidazol-2-yl)-2-(4-methoxyphenyl)ethyl)-3-(1-phenylpropyl)urea]",40 nM
6,"COc1ccc(CC(NC(=O)NC23CCC(O)(CC2)CC3)c2nc3ccccc3[nH]2)c(F)c1F (stereo not drawn) [Example 251, 1-(1-(1H-Benzo[d]imidazol-2-yl)-2-(2,3-difluoro-4-methoxyphenyl)ethyl)-3-(4-hydroxybicyclo[2.2.2]octan-1-yl)urea]",6.6 nM
7,"COc1ccc(C[C@@H](NC(=O)N[C@H]2CCCC[C@H]2CO)c2nc3ccccc3[nH]2)cc1 (relative stereo) [Example 34, 1-((R)-1-(1H-Benzo[d]imidazol-2-yl)-2-(4-methoxyphenyl)ethyl)-3-((1 S*,2R*)-2-(hydroxymethyl)cyclohexyl)urea]",42 nM
8,"CCOc1ccccc1CNC(=O)N[C@H](Cc1ccc(OC)cc1)c1nc2ccccc2[nH]1 [Example 60, (R)-1-(1-(1H-Benzo[d]imidazol-2-yl)-2-(4-methoxyphenyl)ethyl)-3-(2-ethoxybenzyl)urea hydrochloride]",161 nM
9,"COc1ccc(C[C@@H](NC(=O)NC[C@H]2CCCC[C@@H]2O)c2nc3ccccc3[nH]2)cc1 (relative stereo) [Example 103, 1-((R)-1-(1H-Benzo[d]imidazol-2-yl)-2-(4-methoxyphenyl)ethyl)-3-(((1R*,2S*)-2-hydroxycyclohexyl)methyl)urea]",309 nM
10,"O=C(NC(Cc1ccc(C(F)(F)F)c(F)c1)c1nc2ccccc2[nH]1)NC12CCC(O)(CC1)CC2 (stereo not drawn) [Example 238, 1-(1-(1H-Benzo[d]imidazol-2-yl)-2-(3-fluoro-4-(trifluoromethyl)phenyl)ethyl)-3-(4-hydroxybicyclo[2.2.2]octan-1-yl)urea]",36 nM
11,"COc1ccc(C[C@@H](NC(=O)NC2(c3ccc(C(F)(F)F)cc3)CC2)c2nc3ccccc3[nH]2)cc1 [Example 358, (R)-1-(1-(1H-Benzo[d]imidazol-2-yl)-2-(4-methoxyphenyl)ethyl)-3-(1-(4-(trifluoromethyl)phenyl)cyclopropyl)urea]",176 nM
12,"COc1ccc(CC(NC(=O)NC2CCCC2)c2nc3ccccc3[nH]2)cc1 (stereo not drawn) [Example 12, 1-(1-(1H-Benzo[d]imidazol-2-yl)-2-(4-methoxyphenyl)ethyl)-3-cyclopentylurea]",45 nM
13,"COc1ccc(CC(C)(NC(=O)Nc2cc(C3CC3)nn2C)c2nc3ccccc3[nH]2)cc1 (stereo not drawn) [Example 422, 1-(2-(1H-benzo[d]imidazol-2-yl)-1-(4-methoxyphenyl)propan-2-yl)-3-(3-cyclopropyl-1-methyl-1H-pyrazol-5-yl)urea]",720 nM
14,"COc1ccc(C[C@@H](NC(=O)NCCN2CCN(C(=O)OC(C)(C)C)CC2)c2nc3ccccc3[nH]2)cc1 [Example 144, (R)-tert-Butyl 4-(2-(3-(1-(1H-benzo[d]imidazol-2-yl)-2-(4-methoxyphenyl)ethyl)ureido)ethyl)piperazine-1-carboxylate]",947 nM
15,"COc1ccc(CC(NC(=O)NCCc2ccccc2OC)c2nc3ccccc3[nH]2)cc1 (stereo not drawn) [Example 40, 1-(1-(1H-Benzo[d]imidazol-2-yl)-2-(4-methoxyphenyl)ethyl)-3-(2-methoxyphenethyl)urea]",62 nM
16,"CCOc1ccccc1CCNC(=O)N[C@H](Cc1ccc(OC)cc1)c1nc2ccccc2[nH]1 [Example 73, (R)-1-(1-(1H-Benzo[d]imidazol-2-yl)-2-(4-methoxyphenyl)ethyl)-3-(2-ethoxyphenethyl)urea]",99 nM
17,"COc1ccc(C[C@@H](NC(=O)N[C@H]2C[C@@H]2c2ccccc2)c2nc3ccccc3[nH]2)cc1 (relative stereo) [Example 16, 1-((R)-1-(1H-Benzo[d]imidazol-2-yl)-2-(4-methoxyphenyl)ethyl)-3-((1 S*,2R*)-2-phenylcyclopropyl)urea hydrochloride]",112 nM
18,"COc1ccc(C[C@@H](NC(=O)NCCC2CCN(C(=O)OC(C)(C)C)CC2)c2nc3ccccc3[nH]2)cc1 [Example 155, (R)-tert-Butyl 4-(2-(3-(1-(1H-benzo[d]imidazol-2-yl)-2-(4-methoxyphenyl)ethyl)ureido)ethyl)piperidine-1-carboxylate]",489 nM
19,"O=C(N[C@H](Cc1ccc(Br)cc1)c1nc2ccccc2[nH]1)N[C@H]1CC[C@H](O)CC1 [Example 35, 1-((R)-1-(1H-Benzo[d]imidazol-2-yl)-2-(4-bromophenyl)ethyl)-3-(trans-4-hydroxycyclohexyl)urea]",5.4 nM
20,"COc1ccc(CC(NC(=O)N[C@H]2CC[C@H](O)CC2)c2nc3cccnc3[nH]2)cc1 (relative stereo) [Example 427, 1-(1-(3H-imidazo[4,5-b]pyridin-2-yl)-2-(4-methoxyphenyl)ethyl)-3-(trans-4-hydroxycyclohexyl)urea]",604 nM
21,"O=C(N[C@H](Cc1ccc(C(F)(F)F)cc1)c1nc2ccccc2[nH]1)N[C@H]1CC[C@H](O)CC1 [Example 190, 1-((R)-1-(1H-Benzo[d]imidazol-2-yl)-2-(4-(trifluoromethyl)phenyl)ethyl)-3-(trans-4-hydroxycyclohexyl)urea]",19 nM
22,"COc1ccc(CC(NC(=O)NC2CCN(C)CC2)c2nc3ccccc3[nH]2)cc1 (stereo not drawn) [Example 49, 1-(1-(1H-Benzo[d]imidazol-2-yl)-2-(4-methoxyphenyl)ethyl)-3-(1-methylpiperidin-4-yl)urea]",85 nM
23,"O=C(NC(Cc1ccc(Br)c(F)c1)c1nc2ccccc2[nH]1)N[C@H]1CC[C@H](O)CC1 (relative stereo) [Example 187, 1-(1-(1H-Benzo[d]imidazol-2-yl)-2-(4-bromo-3-fluorophenyl)ethyl)-3-(trans-4-hydroxycyclohexyl)urea]",8.1 nM
24,"COc1ccc(C[C@@H](NC(=O)NC2CCCN(CCF)C2)c2nc3ccccc3[nH]2)cc1 (stereo partly drawn) [Example 180, 1-((R)-1-(1H-Benzo[d]imidazol-2-yl)-2-(4-methoxyphenyl)ethyl)-3-(1-(2-fluoroethyl)piperidin-3-yl)urea]",59 nM
25,"COc1ccc(C[C@@H](NC(=O)N[C@@H]2CCNC[C@@H]2F)c2nc3ccccc3[nH]2)cc1 (relative stereo) [Example 164, 1-((R)-1-(1H-Benzo[d]imidazol-2-yl)-2-(4-methoxyphenyl)ethyl)-3-((3S*,4R*)-3-fluoropiperidin-4-yl)urea]",25 nM
26,"COc1ccc(CC(NC(=O)N[C@H]2CC[C@H](O)CC2)c2nc3ccncc3[nH]2)cc1 (relative stereo) [Example 428, 1-(1-(3H-imidazo[4,5-c]pyridin-2-yl)-2-(4-methoxyphenyl)ethyl)-3-(trans-4-hydroxycyclohexyl)urea]",299 nM
27,"CCOC(=O)[C@@H]1CCCC[C@H]1NC(=O)N[C@H](Cc1ccc(OC)cc1)c1nc2ccccc2[nH]1 (relative stereo) [Example 29, trans-Ethyl 2-(3-((R)-1-(1H-benzo[d]imidazol-2-yl)-2-(4-methoxyphenyl)ethyl)ureido)cyclohexanecarboxylate (ent-1)]",56 nM
